Assay results published in paper PMC7168207, “Dibasic Derivatives of Phenylcarbamic Acid as Prospective Antibacterial Agents Interacting with Cytoplasmic Membrane” (Antibiotics, 2020).
Several values for one entry are separate records, joined by “and”; a condition that tells them apart may be missing. Equal entries are not always repeated. Where two headings read alike, the source gives them in different places.

Tests used:
S. aureus ATCC 29213 [1] = assay: MIC, broth microdilution; type: cell-based, Staphylococcus aureus; conditions: Staphylococcus aureus
How it was run: (§1)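 Inocula are prepared at 0.5 McFarland in saline buffer from colonies grown overnight on 5% bovine blood agar, then diluted so wells hold 5 × 10^5 CFU/mL. Staphylococcal plates use CaMH; enterococcal plates use BHI. Incubation runs overnight in air at 37 °C.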

[2] = tested on: methicillin-resistant S. aureus 63718; assay: MIC, broth microdilution; type: cell-based, Staphylococcus aureus; conditions: Staphylococcus aureus, read-out: MICs
How it was run: as §1

[3] = tested on: methicillin-resistant S. aureus SA 3202; assay: MIC, broth microdilution; type: cell-based, Staphylococcus aureus; conditions: Staphylococcus aureus, read-out: MICs
How it was run: as §1

[4] = tested on: methicillin-resistant S. aureus SA 630; assay: MIC, broth microdilution; type: cell-based, Staphylococcus aureus; conditions: Staphylococcus aureus, read-out: MICs
How it was run: as §1

[5] = tested on: S. aureus ATCC 29213 biofilm; assay: biofilm inhibition assay (crystal violet); type: cell-based, Staphylococcus aureus; conditions: ≥80% inhibition of biofilm formation; for MBIC80 (minimum biofilm inhibitory concentration): 48 h
Experimental: The ability of compounds 1f, 1g, and 1h to inhibit biofilm growth and destroy the matured biofilm of S. aureus ATCC 29213 was investigated. The inhibitory activity was studied by the method with crystal violet. The activity to disrupt matured biofilm was evaluated as a decrease of metabolic activity using the MTT assay.
The plates were inoculated by inoculum of S. aureus ATCC 29213 grown in TSB + 2% glucose to exponential phase. Before the inoculation of the plate, the original inoculum was diluted to 1 McFarland and then 1:100 in fresh TSB + 2% glucose, to reach the final concentrations in the wells of […]. […] The plates were incubated at 37 °C for 48 h. After incubation, the contents of the wells were removed, and the plates were washed three times by sterile PBS. After drying, 125 μL of 0.5% crystal violet was added to each well and the plates were stained at room temperature for 20 min. Then the dye was removed, and the plates were washed three times by sterile PBS. The colored biofilm was detached from the wells using 33% solution of acetic acid. The absorbance at 595 nm was measured. As a blank, a non-inoculated plate treated in the same way was used. […] The minimum biofilm inhibitory concentration was the lowest concentration of the compounds, which inhibited the growth of 80% bacteria compared to the growth control. The experiment was made in duplicate and repeated at least three times.

[6] = design: method as in PMID 30274224; conditions: isocratic RP-HPLC, extrapolated lipophilicity index; cited from earlier work
[7] = design: method as in PMID 30274224; conditions: methanolic solutions, c = 8.0 × 10^−5 M; cited from earlier work
VRE 342B = assay: synergy with antibiotics (FIC index, checkerboard); type: cell-based, Enterococcus faecalis; conditions: for MIC: Enterococcus, read-out: MIC of each antibacterial drug alone observed in the synergy experiment; for concentrations of the tested compound/clinically used antibiotic providing additivity or synergy: in the combination of that line
From the text: (§2) Representatives from various classes were chosen in order to study the potential difference in synergistic activity according to the diverse mechanisms of action and resistance of these drugs. The method of minimal fractional inhibitory concentration (FIC) index (FICI) in a microtitration plate was used. FICI ≤ 0.5 means synergy; 0.5 < FICI < 1 means additivity; 1 ≤ FICI < 4 means indifference; and FICI ≥ 4 means antagonism.
(§3) For synergy effect study, a method of fractional inhibitory concentration was used. […] Raw H was used for the evaluation of MIC(A); column 12 was used for evaluation of MIC(B). The plate was inoculated by the bacterial suspension to reach final concentration of 5 × 10^5 CFU/mL in the wells. The fractional inhibitory concentration (FIC) index was calculated using the concentrations in the first nonturbid (clear) well found in each row and column along the turbidity/nonturbidity interface. To interpret the combined effect, the lowest FICI was used. A ΣFIC ≤ 0.5 means synergy; 0.5 < ΣFIC < 1 means additivity; 1 ≤ ΣFIC < 4 means indifference; and ΣFIC ≥ 4 means antagonism. The tests were made in duplicate, and the results were averaged.

VRE 368 = assay: synergy with antibiotics (FIC index, checkerboard); type: cell-based, Enterococcus faecalis; conditions: for MIC: Enterococcus, VRE, read-out: MIC of each antibacterial drug alone observed in the synergy experiment; for concentrations of the tested compound/clinically used antibiotic providing additivity or synergy: in the combination of that line
From the text: as §2, §3

S. aureus ATCC 29213 [8] = assay: time-kill study; type: cell-based, Staphylococcus aureus; conditions: SA
From the text: Time-kill studies are used to evaluate the dynamics of antibacterial activity. As mentioned above, a pre-test to determine minimum bactericidal concentration (MBC) by sub-cultivation of aliquots on agar was made (see Section 3.4). […] Time-kill studies were made with methicillin-susceptible S. aureus ATCC 29213 and methicillin-resistant MRSA 63718, vancomycin-susceptible E. faecalis ATCC 29212, and all three VRE isolates. Vancomycin was used as a control (Table 6).
The method of time-kill curves was used to study the bactericidal effect of selected compounds. […] The experiment was performed with S. aureus ATCC 29213, MRSA 63718, E. faecalis ATCC 29212, and all VRE isolates. […] The tubes were inoculated by bacterial inoculum in the exponential phase of growth to get a final concentration of 7.5 × 10^6 CFU/mL. The tubes were incubated statically at 37 °C. Immediately after inoculation and after 4, 6, 8, and 24 h, 100 µL of the sample was serially diluted (1:10) in PBS. Then, 2 × 20 µL from each dilution were put onto a Mueller–Hinton agar plate and cultivated at 37 °C for 24 h. After incubation, CFUs of dilutions containing 5–50 colonies were counted. Results were expressed as a decrease of log10(CFU) in each time compared to the starting inoculum. Bactericidal effect is defined as a −3log decrease of CFU/mL compared to the growth control in time 0. The test was made in duplicate on two separate occasions, and the results were averaged. The growth curves with error bars are shown in Figures S1 and S2 in Supplementary Materials.

[9] = ATCC29213, SA = S. aureus ATCC 29213, read-out: MICs
[10] = ATCC29213, Table 7, planktonic cells of S. aureus ATCC 29213, read-out: MIC
[11] = VRE 342B, tested compound/antibiotic
[12] = VRE 368, tested compound/antibiotic

Row | Compound | MIC (S. aureus ATCC 29213 [1]; [9]) | MIC (S. aureus ATCC 29213 [1]; [10]) [µg/mL] | MIC ([2]; MRSA1 = S. aureus 63718) | MIC ([3]; MRSA3 = SA 3202) | MIC ([4]; MRSA2 = SA 630) | minimum biofilm inhibitory concentration relative to MIC against planktonic cells [5] | MBIC80 (minimum biofilm inhibitory concentration) [5] [µg/mL] | log kw [6] | log ε2 (Ch-T) [7] | concentrations of the tested compound/clinically used antibiotic providing additivity or synergy (VRE 342B; VRE 342B) | Log10 Difference in CFU/mL from Inoculum (S. aureus ATCC 29213 [8]; 1 × MIC, 4 h) [log10 CFU/mL] | Log10 Difference in CFU/mL from Inoculum (S. aureus ATCC 29213 [8]; 1 × MIC, 6 h) [log10 CFU/mL] | Log10 Difference in CFU/mL from Inoculum (S. aureus ATCC 29213 [8]; 1 × MIC, 8 h) [log10 CFU/mL] | Log10 Difference in CFU/mL from Inoculum (S. aureus ATCC 29213 [8]; 1 × MIC, 24 h) [log10 CFU/mL] | Log10 Difference in CFU/mL from Inoculum (S. aureus ATCC 29213 [8]; 2 × MIC, 4 h) [log10 CFU/mL] | Log10 Difference in CFU/mL from Inoculum (S. aureus ATCC 29213 [8]; 2 × MIC, 6 h) [log10 CFU/mL] | Log10 Difference in CFU/mL from Inoculum (S. aureus ATCC 29213 [8]; 2 × MIC, 8 h) [log10 CFU/mL] | Log10 Difference in CFU/mL from Inoculum (S. aureus ATCC 29213 [8]; 2 × MIC, 24 h) [log10 CFU/mL] | Log10 Difference in CFU/mL from Inoculum (S. aureus ATCC 29213 [8]; 4 × MIC, 4 h) [log10 CFU/mL] | Log10 Difference in CFU/mL from Inoculum (S. aureus ATCC 29213 [8]; 4 × MIC, 6 h) [log10 CFU/mL] | other results
1 | CCCCCOc1cccc(NC(=O)OC(CN(CCC)CCC)CN2CCCC2)c1.Cl.Cl (stereo not drawn) [1f, 1-[3-(dipropylammonio)-2-({[3-(pentyloxy)phenyl]carbamoyl}-oxy)propyl]pyrrolidinium dichloride] | 16 µg/mL and 31.6 µM | 16 | 16 µg/mL and 31.6 µM | 16 µg/mL and 31.6 µM | 32 µg/mL and 63.2 µM | two-fold higher | 32 | 4.6722 | 4.27 |  |  |  |  |  |  |  |  |  |  |  | 
2 | CCCCCCOc1cccc(NC(=O)OC(CN(CCC)CCC)CN2CCCC2)c1.Cl.Cl (stereo not drawn) [1g, 1-[3-(dipropylammonio)-2-({[3-(hexyloxy)phenyl]carbamoyl}oxy)propyl]pyrrolidinium dichloride] | 8 µg/mL and 15.4 µM | 8 | 8 µg/mL and 15.4 µM | 8 µg/mL and 15.4 µM | 16 µg/mL and 30.8 µM | equal to minimum inhibitory concentration against planktonic cells | 8 | 4.9446 | 4.13 | 4 µg/mL | 1.54 | 1.98 | 2.33 | 2.74 | 0.87 | 0.98 | 1.26 | 2.24 | −0.26 | −0.04 | MIC (VRE 342B; [11]): 8 µg/mL; MIC (VRE 368; [12]): 8 µg/mL; concentrations of the tested compound/clinically used antibiotic providing additivity or synergy (VRE 368; VRE 368): 4 µg/mL; Log10 Difference in CFU/mL from Inoculum (S. aureus ATCC 29213 [8]; 4 × MIC, 8 h): 0.10 log10 CFU/mL; Log10 Difference in CFU/mL from Inoculum (S. aureus ATCC 29213 [8]; 4 × MIC, 24 h): 1.85 log10 CFU/mL
3 | CCCCCCCOc1cccc(NC(=O)OC(CN(CCC)CCC)CN2CCCC2)c1.Cl.Cl (stereo not drawn) [1h, 1-[3-(Dipropylammonio)-2-({[3-(heptyloxy)phenyl]carbamoyl}oxy)propyl]pyrrolidinium dichloride] | 8 µg/mL and 15 µM | 8 | 8 µg/mL and 15 µM | 8 µg/mL and 15 µM | 8 µg/mL and 15 µM | equal to minimum inhibitory concentration against planktonic cells | 8 | 5.5384 | 4.27 | 2 µg/mL | 0.08 | 0.31 | 0.50 | 2.07 | 0.05 | 0.10 | 0.05 | 2.01 | −0.25 | −0.13 | MIC (VRE 342B; [11]): 8 µg/mL; MIC (VRE 368; [12]): 4 µg/mL; Log10 Difference in CFU/mL from Inoculum (S. aureus ATCC 29213 [8]; 4 × MIC, 8 h): −0.08 log10 CFU/mL; Log10 Difference in CFU/mL from Inoculum (S. aureus ATCC 29213 [8]; 4 × MIC, 24 h): 1.93 log10 CFU/mL
4 | CN[C@H](CC(C)C)C(=O)N[C@H]1C(=O)N[C@@H](CC(N)=O)C(=O)N[C@H]2C(=O)N[C@H]3C(=O)N[C@H](C(=O)N[C@H](C(=O)O)c4cc(O)cc(O)c4-c4cc3ccc4O)[C@H](O)c3ccc(c(Cl)c3)Oc3cc2cc(c3O[C@@H]2O[C@H](CO)[C@@H](O)[C@H](O)[C@H]2O[C@H]2C[C@](C)(N)[C@H](O)[C@H](C)O2)Oc2ccc(cc2Cl)[C@H]1O [VAN, vancomycin, reference compound] |  |  |  |  |  |  |  |  |  | 128 µg/mL and 256 µg/mL | −0.37 | −0.65 | −0.84 | 2.90 | −0.26 | −0.59 | −1.12 | −3.67 | −0.27 | −0.38 | MIC (S. aureus ATCC 29213 [1]; ATCC29213, read-out: MICs): 1 µg/mL and 0.69 µM; MIC [2]: 2 µg/mL and 1.38 µM; MIC [3]: 1 µg/mL and 0.69 µM; MIC [4]: 1 µg/mL and 0.69 µM; MIC (VRE 342B; VRE): 1020 µg/mL; MIC (VRE 368): 512 µg/mL; concentrations of the tested compound/clinically used antibiotic providing additivity or synergy (VRE 368; VRE 368): 128 µg/mL; Log10 Difference in CFU/mL from Inoculum (S. aureus ATCC 29213 [8]; 4 × MIC, 8 h): −1.18 log10 CFU/mL; Log10 Difference in CFU/mL from Inoculum (S. aureus ATCC 29213 [8]; 4 × MIC, 24 h): −5.47 log10 CFU/mL
